Here are results for 1 compound from patent US7167801B2, “Method of identifying potential inhibitors of human papillomavirus protein E2 using x-ray atomic coordinates” (Boehringer Ingelheim (Canada) Ltd., priority 2001, dated 2007).

The target of assay [1] is HPV-11 E2 (E2-dependent binding of E1 to the HPV-11 origin of replication) (Human papillomavirus 11, UniProt P04015). Description: E2-dependent E1 origin-binding assay. In kind it is biochemical. The conditions noted are these: assay of Example 6; read-out: IC50 (inhibitory activity). The source says: E2-Dependent E1 Origin-Binding Assay
Chain of HPV-11 E2 (E2-dependent binding of E1 to the HPV-11 origin of replication) (P04015 whole entry): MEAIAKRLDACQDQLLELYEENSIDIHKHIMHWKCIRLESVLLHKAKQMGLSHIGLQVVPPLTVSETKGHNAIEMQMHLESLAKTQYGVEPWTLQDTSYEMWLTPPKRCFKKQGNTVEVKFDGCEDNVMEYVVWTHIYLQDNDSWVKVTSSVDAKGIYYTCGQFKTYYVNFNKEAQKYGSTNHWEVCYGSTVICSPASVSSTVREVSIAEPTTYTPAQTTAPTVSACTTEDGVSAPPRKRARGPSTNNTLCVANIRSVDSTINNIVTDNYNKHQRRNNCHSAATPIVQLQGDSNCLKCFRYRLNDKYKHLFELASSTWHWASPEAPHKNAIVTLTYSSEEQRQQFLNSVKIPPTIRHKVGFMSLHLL
This assay was modeled on a similar assay for SV40 T Antigen described by McKay (J. Mol. Biol., 1981,145:471). A 400 bp radiolabeled DNA probe, containing the HPV-11 origin of replication (Chiang et al., 1992, Proc. Natl. Acad. Sci. USA 89:5799) was produced by PCR, using plasmid pBluescript™ SK encoding the origin (nucleotides 7886-61 of the HPV-11 genome in unique BAMH1 site) as template and primers flanking the origin. Radiolabel was incorporated as [^33P]dCTP. Binding assay buffer consisted of: 20 mM Tris pH 7.6, 100 mM NaCl, 1 mM DTT, 1 mM EDTA.
Other reagents used were protein A-SPA beads (type II, Amersham) and K72 rabbit polyclonal antiserum, raised against a peptide corresponding to the C-terminal 14 amino acids of HPV-11 E1. Following the protocol from Amersham, one bottle of beads was mixed with 25 mL of binding assay buffer. For the assay, a saturating amount of K72 antiserum was added to the beads and the mixture was incubated for 1 h, washed with one volume of binding assay buffer, and then resuspended in the same volume of fresh binding assay buffer. […] After an additional hour of incubation at room temperature, the reactions were centrifuged briefly to pellet the beads and the extent of complex formation was determined by scintillation counting on a Packard TopCount™. […]

Assay [2] deals with T1, SV40 T Antigen (TAg)-origin complex (Simian virus 40, UniProt P03070).
T1 construct: The Large T Antigen: Purchased from Chimerx, at 2.0 mg/mL; purchased Chimerx
T1 sequence (P03070 whole entry, one chain of several): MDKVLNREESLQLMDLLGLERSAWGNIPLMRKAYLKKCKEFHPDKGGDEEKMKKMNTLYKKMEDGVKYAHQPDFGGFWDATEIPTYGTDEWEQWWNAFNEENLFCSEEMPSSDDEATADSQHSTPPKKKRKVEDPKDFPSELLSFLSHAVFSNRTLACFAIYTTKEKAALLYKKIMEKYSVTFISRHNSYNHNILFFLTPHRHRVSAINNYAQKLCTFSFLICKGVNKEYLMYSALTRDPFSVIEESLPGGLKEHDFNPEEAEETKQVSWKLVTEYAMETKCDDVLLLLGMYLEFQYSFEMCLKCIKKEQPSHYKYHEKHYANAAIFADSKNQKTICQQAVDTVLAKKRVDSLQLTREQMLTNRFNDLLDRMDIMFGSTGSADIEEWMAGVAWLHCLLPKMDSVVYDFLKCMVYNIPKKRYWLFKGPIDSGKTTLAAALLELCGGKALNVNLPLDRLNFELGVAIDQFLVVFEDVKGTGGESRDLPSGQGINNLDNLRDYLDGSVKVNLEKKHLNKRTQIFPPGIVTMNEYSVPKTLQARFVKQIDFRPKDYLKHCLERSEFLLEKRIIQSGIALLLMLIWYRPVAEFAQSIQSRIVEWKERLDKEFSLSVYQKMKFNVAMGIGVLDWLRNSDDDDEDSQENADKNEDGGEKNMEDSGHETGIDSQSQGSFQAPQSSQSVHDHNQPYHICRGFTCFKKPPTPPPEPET
Description: SV40 T Antigen-DNA binding assay (counterscreen). In kind it is biochemical. The conditions noted are these: assay of Example 7, counterscreen. The text has this:
SV40 T Antigen-DNA Binding Assay
This assay measures the formation of an SV40 T Antigen (TAg)-origin complex. The assay was developed by R. D. G. McKay (J. Mol. Biol. (1981) 145, 471–488). In principle, it is very similar to the E2-dependent E1-DNA binding assay (Example 6), with TAg replacing E1 and E2, and a radiolabeled SV40 ori probe replacing the HPV ori probe. The assay is used as a counterscreen for the assay of Example 6, since TAg shares functional homology to E1 and E2, but has very low sequence similarity.
The radiolabeled ori-containing DNA probe was made by PCR using pCH110 plasmid (Pharmacia) as a template. This template encodes the SV40 minimal origin of replication at nucleotides 7098-7023. Primers were “sv40-6958sens”=5′-GCCCCTAACTCCGCCCATCCCGC (SEQ ID NO. 7), and “sv40-206anti”=5′-ACCAGACCGCCACGGCTTACGGC (SEQ ID NO. 8). The PCR product was approximately 370 base pairs long and was radiolabeled using 50 μCi/100 μL PCR reaction of dCTP (α-^33P). […]
The protein-DNA complexes were immunocaptured using an α-TAg monoclonal antibody (PAb 101, subtype IgG2a, hybridoma obtained from ATCC and antibody purified in-house) bound to protein A-SPA beads. […] The plates were spun briefly and the precipitated radiolabeled DNA fragments were counted on a TopCount® counter.

With `Cc1ccc2c(c1)C(=O)[C@]1(O[C@@H](c3ccc(Cl)c(Cl)c3)[C@@H](C(=O)Nc3ccc(-c4csnn4)cc3)[C@H]1C(=O)[O-])C2=O.[Na+]` (racemic) [Compound L], the IC50 in assay [1] is 180 nM. For the same compound, in assay [2], the “Selectivity: activity in the SV40 large T antigen assay” value was “lack of activity (or lower potency)”.
